According to US10259798B2, “High-purity magnesium lithospermate B and preparation method therefor” (priority 2014, dated 2019):
“Also recorded” adds a separate entry of the source. Like-named read-outs stand apart in the source and are kept apart here. Marks after values point to notes of the source that are not given here.

Assays:
[1] = assay type: physicochemical; conditions: for 0 h peak area / 2 h peak area / 4 h peak area / 6 h peak area / 8 h peak area / 12 h peak area / 24 h peak area: HPLC 288 nm; for 0 h peak area: 1 mg/mL aqueous solution at 25° C. diluted 10 times, MLB of Example 1; for 2 h peak area / 4 h peak area / 6 h peak area / 8 h peak area / 12 h peak area / 24 h peak area: aqueous solution; for Average peak area: average over 0-24 h
Procedure: The chemical stability of magnesium lithospermate B was investigated by detecting the variation of peak areas (HPLC). Specific experimental method: lithospermic acid B (lab-made; lot number: 20131017) and magnesium lithospermate B prepared in Example 1 of the present invention were respectively formulated to 1 mg/mL aqueous solution at 25° C., which was then diluted 10 times. The variation of peak areas of lithospermic acid B at 288 nm for durations of 0, 2, 4, 6, 8, 12, and 24 hours were detected by HPLC, respectively. 10 microliters was injected for each time.

[2] = test system: lipid oxidation in rat liver microsome; experiment: In vitro anti-lipid peroxidation experiment (MDA, TBA method); assay type: biochemical, SD rat; conditions: 100 μM, 37° C. 90 mins
From the text: Sample and control: magnesium lithospermate B (prepared according to Example 6 of the present application), lithospermic acid B (lab-made; lot number: 20131017), formulated with normal saline prior to use; normal saline as solvent control was from Jiangsu Yabang Pharmaceutical Co., Ltd.; the other reagents were all commercially available analytically pure products. Tris base, potassium chloride, dipotassium phosphate, glycerol, etc. (Sinopharm Chemical Reagent Co., Ltd.); Coomassie brilliant blue G-250, bovine serum albumin (Shanghai Lanji Technology Development Co., Ltd.).
Experimental animal: species and strain: SD rat; source: Shanghai SLAC Laboratory Animal Co., Ltd., Laboratory Animal Production License: SCXK (Shanghai) 2012-0002; number and gender: 2, male; animal weight: 200-250 g.
Steps for preparing liver microsome: liver tissue was taken out, cut into pieces, washed with Buffer A, wiped up, and weighed for 8 g. By adding 10 ml Buffer A per gram of tissue, 80 ml was added in total, followed by automatic homogenization and further homogenization with manual homogenizer. The homogenate was centrifuged at 10,000 g and 4° C. for 30 mins, and the supernatant was taken out. The supernatant was centrifuged at 105,000 g and 4° C. for 60 mins. The resulting precipitate is the microsome, which was then added with Buffer B to obtain microsome suspension, aliquoted into 2 ml small tubes, and stored in −70° C. refrigerator for further use. Determination of protein content: using Bradford method (Coomassie brilliant blue G-250 method).
Determination of lipid oxidation in rat liver microsome: 1 ml liver microsome was added into each tube, followed by addition of different concentrations of reagent solutions. The mixtures were well shaken and incubated in 37° C. water bath for 90 mins. After the tubes were taken out, 1 ml 10% trichloroacetic acid (TCA) and 1 ml 0.67% thiobarbituric acid (TBA) were added into each tube. The tubes were placed in boiling water bath for 15 mins, then cooled with running water and centrifuged at 3000 rpm for 10 mins. The supernatants were taken for colorimetric determination at 532 nm. The contents were calculated with standard tetraethoxypropane and represented with content per mg protein.
Calculation formula: MDA content (nmol/mg prot)={[(Asample−Ablank)÷(Astandard−Ablank)]×10 nmol/ml}÷protein content Inhibition rate %=(MDAblank−MDAsample)/MDAblank×100%

[3] = test system: bleeding of severed tails of rats; experiment: Bleeding time of severed tails of rats; assay type: in vivo, SD rat; conditions: for Bleeding time: injection through femoral vein, tail severed 2 mins after administration, cut-off 1800 seconds
From the text: Sample and control: lithospermic acid B, dipotassium lithospermate B, depside salts of Salvia miltiorrhiza (comprising 85% magnesium lithospermate B), magnesium lithospermate B, formulated with normal saline prior to use; normal saline as solvent control was from Jiangsu Yabang Pharmaceutical Co., Ltd.; the other reagents were all commercially available analytically pure products. Experimental animal: species and strain: SD rat; source: Shanghai SLAC Laboratory Animal Co., Ltd., Laboratory Animal Production License: SCXK (Shanghai) 2012-0002; number and gender: 50, male; animal weight: 120-200 g. Dosage setting: the dosages of lithospermic acid type reagents were set as 50 and 100 mg/kg in the present experiment; normal saline was given as additional solvent control. Tail severing time was 2 mins after administration. Administration route and administration dosage of sample and control: administration by injection through femoral vein, 2 ml/kg. Experimental method: the animals were water fasted overnight. 50 mg/kg pentobarbital sodium was intraperitoneally injected for anesthesia prior to the experiment. After anesthesia of the animals, markers were made at 4 mm from tips of rat tails with a marker pen and ruler. Drugs were injected through femoral veins of the animals. 2 mins later, the tails were swiftly severed at marked positions of the animal tails with a scalpel. The remained animal tails were rapidly inserted into prepared normal saline tubes in 37° C. water bath, and timing was started. The bleeding of the animal tails was observed. If no more bleeding was observed within 30 seconds, the time was recorded as coagulation time (unit: second) of the animals. […] Observation indicator and observation time: the indicator was the bleeding time. Statistical method: the experimental data was represented with x±SD; GraphPad Prism 5 1 way ANOVA was applied for significance test.

[4] = test system: cardiac myoblast cell H9C2; assay type: cell-based
From the text: (§1) Sample and control: magnesium lithospermate B (prepared according to Example 6 of the present application), lithospermic acid B (lab made; lot number: 20131017), formulated with normal saline prior to use; normal saline as solvent control was derived from Jiangsu Yabang Pharmaceutical Co., Ltd.; the other reagents were all commercially available analytically pure products. Cell lines and reagents: cardiac myoblast (H9C2); Microvascular Endothelial Cell (HMEC-1); Lactic Dehydrogenase Cytotoxicity Detection Kit, Beyotime Biotechnology Institute. Dosage setting: the dosages of lithospermic acid B and magnesium lithospermate B were set at 10, 50, 100, 200, 400, 800, 1200, 1600 μM and the incubation time was set as 24 hours in the present experiment. Experimental method: H9C2 cells and HMEC-1 cells were respectively incubated in 10% FBS containing low saccharide DMEM medium and MCDB-131 medium, at 37° C. and 5% CO2. Cells were seeded in a 96-well culture plate, which was added with different concentrations of lithospermic acid B solutions and magnesium lithospermate B solutions on the next day (about 80% fusion). After incubation for 24 hours in total, the detection was conducted according to instructions of the Lactic Dehydrogenase Cytotoxicity Detection Kit. Observation indicator and observation time: the observation indicator is the level of lactic dehydrogenase in cells; cell survival rate was represented by intracellular LDH content ratio, i.e. (absorbance of treated sample well−absorbance of sample control well)/(absorbance of cells with maximum enzymatic activity−absorbance of sample control well)×100. Statistical method: the data was presented with average±standard derivation (mean±SD); the comparison of two groups of data was statistically analyzed by student-t test method, P<0.05 indicating statistical difference.

endothelial cell HMEC-1 = assay type: cell-based
From the text: as §1

| Compound | 0 h peak area [1] | 2 h peak area [1] | 4 h peak area [1] | 6 h peak area [1] | 8 h peak area [1] | 12 h peak area [1] | 24 h peak area [1] | Average peak area [1] | Inhibition rate (anti-lipid peroxidation, MDA) ([2]; n = 3) [%] | Bleeding time ([3]; 50 mg/kg) | Bleeding time ([3]; 100 mg/kg) | Toxic effect at high dosages, in words [4] | Toxic effect at high dosages, in words (endothelial cell HMEC-1) | also measured |
| --- | --- | --- | --- | --- | --- | --- | --- | --- | --- | --- | --- | --- | --- | --- |
| O=C(/C=C/c1ccc(O)c2c1[C@H](C(=O)OC(Cc1ccc(O)c(O)c1)C(=O)[O-])C(c1ccc(O)c(O)c1)O2)O[C@H](Cc1ccc(O)c(O)c1)C(=O)[O-].[Mg+2] (stereo partly shown) [Magnesium lithospermate B, magnesium lithospermate B] | 3611 | 3632 | 3614 | 3636 | 3629 | 3628 | 3599 | 3621.3 | 84.41 | 1098 ± 84 s | 1800 ± 0 s | toxic effect | toxic effect | Inhibition rate (anti-lipid peroxidation, MDA) ([2]; n = 3, listed as magnesium lithospermate B): around 85%; Bleeding time / activity compared with the other test substances, in words ([3]; same dosage, intravenous injection): remarkably longer than lithospermic acid B administration group; also recorded: significantly longer than dipotassium lithospermate B and depside salts of Salvia miltiorrhiza; also recorded: activity superior to the free acid (lithospermic acid B), other salts (dipotassium lithospermate B), and low purity mixtures (salvianolates of Salvia miltiorrhiza); also recorded: better activities than free acid (lithospermic acid B), other salt (dipotassium lithospermate B), and low purity mixture (depside salts of Salvia miltiorrhiza); Concentrations that significantly decreased the intracellular LDH content as compared with normal control wells ([4]; rat, 24 h): 800, 1200, 1600 μM; Intracellular LDH content percent, H9C2 cell ([4]; rat, 24 h, 10 μM): 101.42 ± 2.00%; Intracellular LDH content percent, H9C2 cell ([4]; rat, 24 h, 50 μM): 99.97 ± 1.43%; Intracellular LDH content percent, H9C2 cell ([4]; rat, 24 h, 100 μM): 101.25 ± 2.79%; Intracellular LDH content percent, H9C2 cell ([4]; rat, 24 h, 200 μM): 102.39 ± 1.37%; Intracellular LDH content percent, H9C2 cell ([4]; rat, 24 h, 400 μM): 102.75 ± 3.07%; Intracellular LDH content percent, H9C2 cell ([4]; rat, 24 h, 800 μM): 37.72 ± 7.52 %; Intracellular LDH content percent, H9C2 cell ([4]; rat, 24 h, 1200 μM): 21.59 ± 2.86 %; Intracellular LDH content percent, H9C2 cell ([4]; rat, 24 h, 1600 μM): 14.59 ± 3.05 %; Concentrations that significantly decreased the intracellular LDH content as compared with normal control wells (endothelial cell HMEC-1; human, 24 h): 1200 and 1600 μM; Intracellular LDH content percent, HMEC-1 cell (endothelial cell HMEC-1; human, 24 h, 10 μM): 99.70 ± 3.88%; Intracellular LDH content percent, HMEC-1 cell (endothelial cell HMEC-1; human, 24 h, 50 μM): 101.05 ± 4.77%; Intracellular LDH content percent, HMEC-1 cell (endothelial cell HMEC-1; human, 24 h, 100 μM): 100.96 ± 4.01%; Intracellular LDH content percent, HMEC-1 cell (endothelial cell HMEC-1; human, 24 h, 200 μM): 98.58 ± 0.24%; Intracellular LDH content percent, HMEC-1 cell (endothelial cell HMEC-1; human, 24 h, 400 μM): 97.8 ± 1.03%; Intracellular LDH content percent, HMEC-1 cell (endothelial cell HMEC-1; human, 24 h, 800 μM): 96.93 ± 1.37%; Intracellular LDH content percent, HMEC-1 cell (endothelial cell HMEC-1; human, 24 h, 1200 μM): 96.17 ± 1.00 %; Intracellular LDH content percent, HMEC-1 cell (endothelial cell HMEC-1; human, 24 h, 1600 μM): 84.28 ± 3.28 % |
| O=C(C=Cc1ccc(O)c2c1C(C(=O)OC(Cc1ccc(O)c(O)c1)C(=O)[O-])C(c1ccc(O)c(O)c1)O2)OC(Cc1ccc(O)c(O)c1)C(=O)[O-].[K+].[K+] (stereo not shown) [Dipotassium lithospermate B, dipotassium lithospermate B, reference compound] | – | – | – | – | – | – | – | – | – | 827 ± 70**^$$ second | 1301 ± 189**^$$ second | – | – | – |
| O=C(/C=C/c1ccc(O)c2c1[C@H](C(=O)O[C@H](Cc1ccc(O)c(O)c1)C(=O)O)[C@@H](c1ccc(O)c(O)c1)O2)O[C@H](Cc1ccc(O)c(O)c1)C(=O)O [Lithospermic acid B, lithospermic acid B, reference compound] | 3957 | 3991 | 3992 | 3983 | 4002 | 3990 | 4000 | 3987.8 | 86.42 | 869 ± 71 s | 1078 ± 137 s | toxic effect | toxic effect | Inhibition rate (anti-lipid peroxidation, MDA) ([2]; n = 3, listed as lithospermic acid B): around 85% |
